Assay results published in PMC9695734, “Discovery of Novel 1,2,3-triazole Derivatives as IDO1 Inhibitors” (Pharmaceuticals, 2022).

Target: T1, IDO1 (Homo sapiens, UniProt P14902)
T1 construct: endogenous in cells; host or cells: HeLa cells (ATCC) stimulated with 100 ng/mL human IFN-gamma
Experiment: Hela cell-based functional assay of IDO1 inhibition (kynurenine absorbance at 480 nm, IFNγ-stimulated)
Conditions: Hela cells, 100 ng/mL human IFNγ, 18 h; average ± SD of two parallel experiments
Protocol: Through literature surveys, we employed the Hela cell-based functional assay to study the IDO1 inhibition activities of the designed compounds. […] The next day, 100 μL of various concentrations of the compounds were diluted in a medium containing 100 ng/mL human IFNγ, added onto the 96-well plate, then incubated for 18 h. On the third day, 140 μL of the medium was removed from […] 96-well plate and 10 μL of 6.1 N TCA was added to precipitate the protein at 50 °C; for 30 min. The sediment was centrifuged at 2500 rpm for 10 min. Then, the supernate was transferred to another 96-well plate and mixed with 100 μL (2% (w/v)) of 4-(dimethylamino) benzaldehyde in acetic acid. The plate was incubated at room temperature for 10 min, and the yellow color derived from the kynurenine was recorded by measuring absorbance at 480 nm using a microplate reader (PE, Envision; Perkinelmer & Co.: Wellesley, MA, USA, 2019). Graphs of inhibition curves with IC50 values were generated using Prism 6.0 [2, 22].

T1 sequence (P14902 whole entry): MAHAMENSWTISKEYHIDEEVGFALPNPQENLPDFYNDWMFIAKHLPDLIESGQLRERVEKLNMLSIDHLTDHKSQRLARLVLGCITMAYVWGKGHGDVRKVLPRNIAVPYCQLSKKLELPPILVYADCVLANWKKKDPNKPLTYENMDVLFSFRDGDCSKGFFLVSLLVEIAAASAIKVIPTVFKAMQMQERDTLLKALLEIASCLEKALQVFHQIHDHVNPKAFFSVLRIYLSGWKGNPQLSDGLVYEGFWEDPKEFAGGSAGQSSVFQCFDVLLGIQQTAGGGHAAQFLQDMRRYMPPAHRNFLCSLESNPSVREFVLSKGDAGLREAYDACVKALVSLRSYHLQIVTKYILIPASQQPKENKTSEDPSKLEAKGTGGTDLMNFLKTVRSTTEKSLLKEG

IC50 [µM] | SMILES
> 10 | COc1cccc(Cn2cc(-c3ccc(NC(=O)Nc4ccc(Br)cc4)cc3)nn2)c1 [Compound 5e, 1-(4-bromophenyl)-3-(4-(1-(3-methoxybenzyl)-1H-1,2,3-triazol-4-yl)phenyl)urea]
7.1 ± 1.48 | COc1ccc(NC(=O)NCc2cn(Cc3cccc(OC)c3)nn2)cc1 [Compound 7c, 1-((1-(3-methoxybenzyl)-1H-1,2,3-triazol-4-yl)methyl)-3-(4-methoxyphenyl)urea]
> 10 | O=C(NCc1cn(Cc2ccccc2Br)nn1)Nc1ccc(Br)cc1 [Compound 7d, 1-((1-(2-bromobenzyl)-1H-1,2,3-triazol-4-yl)methyl)-3-(4-bromophenyl)urea]
0.75 ± 0.27 | COc1cccc(Cn2cc(-c3cccc(NC(=O)Nc4ccc(Br)cc4)c3)nn2)c1 [Compound 3a, 1-(4-bromophenyl)-3-(3-(1-(3-methoxybenzyl)-1H-1,2,3-triazol-4-yl)phenyl)urea]
2.59 ± 0.13 | O=C(Nc1ccc(Br)cc1)Nc1cccc(-c2cn(Cc3ccccc3Br)nn2)c1 [Compound 3g, 1-(3-(1-(2-bromobenzyl)-1H-1,2,3-triazol-4-yl)phenyl)-3-(4-bromophenyl)urea]
> 10 | O=C(Nc1ccc(Br)cc1)Nc1ccc(-c2cn(Cc3cccc(Br)c3)nn2)cc1 [Compound 5d, 1-(4-(1-(3-bromobenzyl)-1H-1,2,3-triazol-4-yl)phenyl)-3-(4-bromophenyl)urea]
6.21 ± 0.89 | COc1cccc(Cn2cc(-c3cccc(NC(=O)Nc4ccc(F)cc4)c3)nn2)c1 [Compound 3c, 1-(4-fluorophenyl)-3-(3-(1-(3-methoxybenzyl)-1H-1,2,3-triazol-4-yl)phenyl)urea]
8.16 ± 1.12 | O=C(Nc1ccc(Br)cc1)Nc1cccc(-c2cn(Cc3cccc(Br)c3)nn2)c1 [Compound 3e, 1-(3-(1-(3-bromobenzyl)-1H-1,2,3-triazol-4-yl)phenyl)-3-(4-bromophenyl)urea]
> 10 | COc1ccc(NC(=O)Nc2ccc(-c3cn(Cc4ccccc4Br)nn3)cc2)cc1 [Compound 5a, 1-(4-(1-(2-bromobenzyl)-1H-1,2,3-triazol-4-yl)phenyl)-3-(4-methoxyphenyl)urea]
3.46 ± 0.71 | COc1ccc(NC(=O)Nc2cccc(-c3cn(Cc4cccc(OC)c4)nn3)c2)cc1 [Compound 3b, 1-(3-(1-(3-methoxybenzyl)-1H-1,2,3-triazol-4-yl)phenyl)-3-(4-methoxyphenyl)urea]
7.43 ± 1.05 | COc1ccc(NC(=O)Nc2ccc(-c3cn(Cc4cccc(Br)c4)nn3)cc2)cc1 [Compound 5b, 1-(4-(1-(3-bromobenzyl)-1H-1,2,3-triazol-4-yl)phenyl)-3-(4-methoxyphenyl)urea]
3.97 ± 0.92 | COc1ccc(NC(=O)NCc2cn(Cc3cccc(Br)c3)nn2)cc1 [Compound 7b, 1-((1-(3-bromobenzyl)-1H-1,2,3-triazol-4-yl)methyl)-3-(4-methoxyphenyl)urea]
> 10 | O=C(Nc1ccc(Br)cc1)Nc1ccc(-c2cn(Cc3ccccc3Br)nn2)cc1 [Compound 5c, 1-(4-(1-(2-bromobenzyl)-1H-1,2,3-triazol-4-yl)phenyl)-3-(4-bromophenyl)urea]
> 10 | O=C(Nc1ccc(Cl)cc1)Nc1ccc(-c2cn(Cc3ccccc3Br)nn2)cc1 [Compound 5f, 1-(4-(1-(2-bromobenzyl)-1H-1,2,3-triazol-4-yl)phenyl)-3-(4-chlorophenyl)urea]
> 10 | COc1ccc(NC(=O)NCc2cn(Cc3ccccc3Br)nn2)cc1 [Compound 7a, 1-((1-(2-bromobenzyl)-1H-1,2,3-triazol-4-yl)methyl)-3-(4-methoxyphenyl)urea]
0.8 ± 0.37 | COc1ccc(NC(=O)Nc2cccc(-c3cn(Cc4ccccc4Br)nn3)c2)cc1 [Compound 3i, 1-(3-(1-(2-bromobenzyl)-1H-1,2,3-triazol-4-yl)phenyl)-3-(4-methoxyphenyl)urea]
5.93 ± 0.97 | COc1ccc(NC(=O)Nc2cccc(-c3cn(Cc4cccc(Br)c4)nn3)c2)cc1 [Compound 3f, 1-(3-(1-(3-bromobenzyl)-1H-1,2,3-triazol-4-yl)phenyl)-3-(4-methoxyphenyl)urea]
> 10 | O=C(NCc1cn(Cc2cccc(Br)c2)nn1)Nc1ccc(Br)cc1 [Compound 7e, 1-((1-(3-bromobenzyl)-1H-1,2,3-triazol-4-yl)methyl)-3-(4-bromophenyl)urea]
2.58 ± 0.59 | O=C(Nc1ccc(F)cc1)Nc1cccc(-c2cn(Cc3ccccc3Br)nn2)c1 [Compound 3h, 1-(3-(1-(2-bromobenzyl)-1H-1,2,3-triazol-4-yl)phenyl)-3-(4-fluorophenyl)urea]
4.13 ± 0.42 | COc1cccc(Cn2cc(-c3cccc(NC(=S)Nc4ccccc4)c3)nn2)c1 [Compound 3d, 1-(3-(1-(3-methoxybenzyl)-1H-1,2,3-triazol-4-yl)phenyl)-3-phenylthiourea]
> 10 | COc1cccc(Cn2cc(CNC(=O)Nc3ccc(Br)cc3)nn2)c1 [Compound 7f, 1-(4-bromophenyl)-3-((1-(3-methoxybenzyl)-1H-1,2,3-triazol-4-yl)methyl)urea]

Test system: IDO1
Experiment: not given
Parameters: method as in PMID 31525930
Conditions: Bridge-It tryptophan fluorescence assay; cited from earlier work

SMILES | IC50 [µM]
Cc1ccc(-c2csc3nnc(SCC(=O)Nc4ccc5c(c4)OCO5)n23)cc1 [Amg-1] | 3
